Reference: publication PMC10600239, “Selective MCL-1 inhibitor ABBV-467 is efficacious in tumor models but is associated with cardiac troponin increases in patients” (Communications Medicine, 2023)
Like-named read-outs stand apart in the source and are kept apart here.

How the values were obtained:
Assay in all cases: Off-target profiling (Supplementary Data 1)
[1] = biological target: off-target receptors, ion channels, and transporters (Homo sapiens, UniProt P15056); conditions: TR-FRET Kinome; Invitrogen A-1196442.2 .05(Subs Conc)
[2] = biological target: off-target receptors, ion channels, and transporters (Homo sapiens, UniProt O15530); conditions: TR-FRET Kinome; Invitrogen A-1167389.7 .015(Subs Conc)
[3] = biological target: off-target receptors, ion channels, and transporters (Homo sapiens, UniProt Q13043); conditions: TR-FRET Kinome; Invitrogen A-1167389.7 .025(Subs Conc)
[4] = biological target: off-target receptors, ion channels, and transporters (Homo sapiens, UniProt P07333); conditions: TR-FRET Kinome; Invitrogen A-1167389.7 .004(Subs Conc)
[5] = biological target: off-target receptors, ion channels, and transporters (Homo sapiens, UniProt P35367)
[6] = biological target: off-target receptors, ion channels, and transporters (Homo sapiens, UniProt P08581); conditions: TR-FRET Kinome; Invitrogen A-1196581.2 .003(Subs Conc)
[7] = biological target: off-target receptors, ion channels, and transporters (Homo sapiens, UniProt Q9UL54); conditions: TR-FRET Kinome; Invitrogen A-1169612.6 .2(Subs Conc)
[8] = biological target: off-target receptors, ion channels, and transporters (Homo sapiens, UniProt P51812); conditions: TR-FRET Kinome; Invitrogen A-1169612.6 .0015(Subs Conc)
[9] = biological target: off-target receptors, ion channels, and transporters (Homo sapiens, UniProt P07948); conditions: TR-FRET Kinome, SignalChem A-1196581.2 .002(Subs Conc)
[10] = biological target: off-target receptors, ion channels, and transporters (Homo sapiens, UniProt P30542)
[11] = biological target: off-target receptors, ion channels, and transporters (Homo sapiens, UniProt P09619); conditions: TR-FRET Kinome; Invitrogen A-1169612.6 .025(Subs Conc)
[12] = biological target: off-target receptors, ion channels, and transporters; conditions: for EC50: Bioprofiling 6pt Ag
[13] = biological target: off-target receptors, ion channels, and transporters (Homo sapiens, UniProt P35372)
[14] = biological target: off-target receptors, ion channels, and transporters (Homo sapiens, UniProt P28482); conditions: TR-FRET Kinome; Invitrogen A-1224127.6 .05(Subs Conc)
[15] = biological target: off-target receptors, ion channels, and transporters (Homo sapiens, UniProt Q92918); conditions: TR-FRET Kinome; SignalChem A-1169612.6 .025(Subs Conc)
[16] = biological target: off-target receptors, ion channels, and transporters (Homo sapiens, UniProt O43293); conditions: TR-FRET Kinome; Invitrogen A-1180691.2 .1(Subs Conc)
[17] = biological target: off-target receptors, ion channels, and transporters (Homo sapiens, UniProt P34947); conditions: TR-FRET Kinome; Invitrogen A-1180691.2 .1(Subs Conc)
[18] = biological target: off-target receptors, ion channels, and transporters (Homo sapiens, UniProt Q08345); conditions: TR-FRET Kinome; Invitrogen A-1196581.2 .003(Subs Conc)
[19] = biological target: off-target receptors, ion channels, and transporters (Homo sapiens, UniProt P23219); conditions: CEREP
[20] = biological target: off-target receptors, ion channels, and transporters (Homo sapiens, UniProt Q06187); conditions: TR-FRET Kinome; Invitrogen A-1167389.7 .2(Subs Conc)
[21] = biological target: off-target receptors, ion channels, and transporters (Homo sapiens, UniProt Q05397); conditions: TR-FRET Kinome; Invitrogen A-1167389.7 .05(Subs Conc)
[22] = biological target: off-target receptors, ion channels, and transporters (Homo sapiens, UniProt P43403); conditions: TR-FRET Kinome; SignalChem A-1167389.7 .015(Subs Conc)
[23] = biological target: off-target receptors, ion channels, and transporters (Homo sapiens, UniProt Q9UHD2); conditions: TR-FRET Kinome; Invitrogen A-1167389.7 .00625(Subs Conc)
[24] = biological target: off-target receptors, ion channels, and transporters (Homo sapiens, UniProt Q12851); conditions: TR-FRET Kinome; Invitrogen A-1169612.6 .04(Subs Conc)
[25] = biological target: off-target receptors, ion channels, and transporters (Homo sapiens, UniProt Q07912); conditions: TR-FRET Kinome; Invitrogen A-1169612.6 .025(Subs Conc)

off-target receptors, ion channels, and transporters (Homo sapiens, UniProt P35367), sequence (P35367 whole entry): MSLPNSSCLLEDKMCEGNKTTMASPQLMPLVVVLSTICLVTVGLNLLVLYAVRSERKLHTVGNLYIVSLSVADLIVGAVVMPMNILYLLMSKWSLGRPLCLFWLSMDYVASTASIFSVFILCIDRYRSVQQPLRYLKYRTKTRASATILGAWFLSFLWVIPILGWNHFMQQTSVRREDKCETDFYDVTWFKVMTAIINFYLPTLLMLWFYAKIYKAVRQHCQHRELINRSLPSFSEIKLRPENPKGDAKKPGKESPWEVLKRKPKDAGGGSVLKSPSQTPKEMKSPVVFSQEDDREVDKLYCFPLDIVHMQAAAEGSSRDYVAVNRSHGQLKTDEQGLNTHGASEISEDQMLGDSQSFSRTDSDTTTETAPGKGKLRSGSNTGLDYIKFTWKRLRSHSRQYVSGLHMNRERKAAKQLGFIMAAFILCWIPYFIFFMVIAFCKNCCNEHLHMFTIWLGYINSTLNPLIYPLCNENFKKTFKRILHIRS
off-target receptors, ion channels, and transporters (Homo sapiens, UniProt P30542), sequence (P30542 whole entry): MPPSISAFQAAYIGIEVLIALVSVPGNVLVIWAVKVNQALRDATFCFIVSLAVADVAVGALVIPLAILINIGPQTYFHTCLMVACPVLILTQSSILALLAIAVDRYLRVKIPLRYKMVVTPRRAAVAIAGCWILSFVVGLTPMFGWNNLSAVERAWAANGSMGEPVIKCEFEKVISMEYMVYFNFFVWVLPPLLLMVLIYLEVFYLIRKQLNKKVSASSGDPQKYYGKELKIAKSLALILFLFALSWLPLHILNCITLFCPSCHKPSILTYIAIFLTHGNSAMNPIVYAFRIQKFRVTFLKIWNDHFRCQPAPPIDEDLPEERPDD
off-target receptors, ion channels, and transporters (Homo sapiens, UniProt P35372), sequence (P35372 whole entry): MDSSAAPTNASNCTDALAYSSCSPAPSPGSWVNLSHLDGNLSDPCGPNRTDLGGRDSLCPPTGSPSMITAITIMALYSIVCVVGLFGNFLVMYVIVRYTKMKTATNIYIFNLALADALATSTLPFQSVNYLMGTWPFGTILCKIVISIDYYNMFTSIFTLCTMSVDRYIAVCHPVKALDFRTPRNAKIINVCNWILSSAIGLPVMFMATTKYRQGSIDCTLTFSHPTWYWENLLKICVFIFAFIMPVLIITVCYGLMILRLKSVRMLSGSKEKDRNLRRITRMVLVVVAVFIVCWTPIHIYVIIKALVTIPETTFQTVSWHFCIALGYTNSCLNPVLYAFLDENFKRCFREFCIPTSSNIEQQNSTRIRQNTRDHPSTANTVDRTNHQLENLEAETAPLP
off-target receptors, ion channels, and transporters (Homo sapiens, UniProt P07948), sequence (P07948 2-512): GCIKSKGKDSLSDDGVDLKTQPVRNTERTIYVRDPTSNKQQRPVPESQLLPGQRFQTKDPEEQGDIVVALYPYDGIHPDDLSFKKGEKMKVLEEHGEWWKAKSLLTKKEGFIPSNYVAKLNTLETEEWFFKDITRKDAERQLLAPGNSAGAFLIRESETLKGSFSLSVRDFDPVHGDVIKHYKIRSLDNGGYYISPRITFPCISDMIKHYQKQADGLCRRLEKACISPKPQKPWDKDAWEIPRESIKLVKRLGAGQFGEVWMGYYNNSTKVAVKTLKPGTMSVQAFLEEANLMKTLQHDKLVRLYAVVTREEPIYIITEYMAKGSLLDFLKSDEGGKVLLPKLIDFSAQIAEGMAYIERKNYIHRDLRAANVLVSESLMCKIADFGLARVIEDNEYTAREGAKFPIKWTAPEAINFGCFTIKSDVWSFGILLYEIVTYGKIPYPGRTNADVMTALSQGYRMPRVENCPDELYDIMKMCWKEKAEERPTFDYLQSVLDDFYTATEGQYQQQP
off-target receptors, ion channels, and transporters (Homo sapiens, UniProt Q08345), sequence (Q08345 19-913): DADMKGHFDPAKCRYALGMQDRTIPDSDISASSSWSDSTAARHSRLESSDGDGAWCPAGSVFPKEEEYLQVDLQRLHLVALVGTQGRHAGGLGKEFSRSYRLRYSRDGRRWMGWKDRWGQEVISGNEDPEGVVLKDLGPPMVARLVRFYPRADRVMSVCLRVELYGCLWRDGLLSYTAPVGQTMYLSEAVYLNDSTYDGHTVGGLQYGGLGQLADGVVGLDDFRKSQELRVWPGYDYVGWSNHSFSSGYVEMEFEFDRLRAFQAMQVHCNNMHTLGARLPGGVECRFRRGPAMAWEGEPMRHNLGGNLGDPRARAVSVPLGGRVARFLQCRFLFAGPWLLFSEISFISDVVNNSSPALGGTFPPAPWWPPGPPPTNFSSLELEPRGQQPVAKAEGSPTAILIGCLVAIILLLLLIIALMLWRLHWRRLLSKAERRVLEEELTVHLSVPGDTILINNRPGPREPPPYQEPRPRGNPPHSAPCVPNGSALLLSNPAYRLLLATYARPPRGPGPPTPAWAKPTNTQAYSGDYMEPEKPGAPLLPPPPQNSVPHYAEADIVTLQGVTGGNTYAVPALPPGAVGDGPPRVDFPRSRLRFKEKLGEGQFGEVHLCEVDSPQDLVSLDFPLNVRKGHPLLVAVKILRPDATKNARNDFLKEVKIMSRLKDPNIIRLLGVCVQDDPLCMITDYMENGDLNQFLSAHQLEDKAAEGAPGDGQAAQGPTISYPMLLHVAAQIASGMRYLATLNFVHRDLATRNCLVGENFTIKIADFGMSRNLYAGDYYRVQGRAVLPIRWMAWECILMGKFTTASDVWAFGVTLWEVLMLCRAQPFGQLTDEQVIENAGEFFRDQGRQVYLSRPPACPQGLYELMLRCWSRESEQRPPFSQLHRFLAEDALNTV
off-target receptors, ion channels, and transporters (Homo sapiens, UniProt Q06187), sequence (Q06187 whole entry): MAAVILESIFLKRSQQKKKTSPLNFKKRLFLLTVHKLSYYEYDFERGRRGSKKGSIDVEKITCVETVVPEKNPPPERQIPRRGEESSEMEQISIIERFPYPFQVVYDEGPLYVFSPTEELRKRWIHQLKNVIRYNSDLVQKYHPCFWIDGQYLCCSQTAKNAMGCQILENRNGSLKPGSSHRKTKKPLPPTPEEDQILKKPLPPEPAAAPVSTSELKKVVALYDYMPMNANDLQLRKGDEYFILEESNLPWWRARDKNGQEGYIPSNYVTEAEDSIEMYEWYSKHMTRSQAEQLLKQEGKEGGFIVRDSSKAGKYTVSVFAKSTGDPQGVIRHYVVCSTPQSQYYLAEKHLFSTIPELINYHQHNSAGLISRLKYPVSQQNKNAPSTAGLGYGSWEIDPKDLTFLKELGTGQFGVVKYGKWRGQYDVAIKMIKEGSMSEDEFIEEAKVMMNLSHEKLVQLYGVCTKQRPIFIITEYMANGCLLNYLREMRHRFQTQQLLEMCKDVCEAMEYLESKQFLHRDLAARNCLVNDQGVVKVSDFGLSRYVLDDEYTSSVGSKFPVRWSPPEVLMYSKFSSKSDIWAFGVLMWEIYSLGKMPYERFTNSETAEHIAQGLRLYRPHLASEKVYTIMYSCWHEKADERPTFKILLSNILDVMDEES
off-target receptors, ion channels, and transporters (Homo sapiens, UniProt P28482), sequence (P28482 whole entry): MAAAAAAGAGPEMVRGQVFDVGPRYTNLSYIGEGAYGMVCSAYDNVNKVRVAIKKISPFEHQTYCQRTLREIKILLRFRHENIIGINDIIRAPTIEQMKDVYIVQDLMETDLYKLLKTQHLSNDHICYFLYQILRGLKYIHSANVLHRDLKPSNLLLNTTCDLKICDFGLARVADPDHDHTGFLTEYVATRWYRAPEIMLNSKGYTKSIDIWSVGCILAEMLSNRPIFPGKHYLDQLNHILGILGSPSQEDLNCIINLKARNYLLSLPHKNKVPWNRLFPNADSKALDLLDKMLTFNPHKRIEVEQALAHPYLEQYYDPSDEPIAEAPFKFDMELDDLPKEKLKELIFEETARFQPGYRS
off-target receptors, ion channels, and transporters (Homo sapiens, UniProt Q92918), sequence (Q92918 whole entry): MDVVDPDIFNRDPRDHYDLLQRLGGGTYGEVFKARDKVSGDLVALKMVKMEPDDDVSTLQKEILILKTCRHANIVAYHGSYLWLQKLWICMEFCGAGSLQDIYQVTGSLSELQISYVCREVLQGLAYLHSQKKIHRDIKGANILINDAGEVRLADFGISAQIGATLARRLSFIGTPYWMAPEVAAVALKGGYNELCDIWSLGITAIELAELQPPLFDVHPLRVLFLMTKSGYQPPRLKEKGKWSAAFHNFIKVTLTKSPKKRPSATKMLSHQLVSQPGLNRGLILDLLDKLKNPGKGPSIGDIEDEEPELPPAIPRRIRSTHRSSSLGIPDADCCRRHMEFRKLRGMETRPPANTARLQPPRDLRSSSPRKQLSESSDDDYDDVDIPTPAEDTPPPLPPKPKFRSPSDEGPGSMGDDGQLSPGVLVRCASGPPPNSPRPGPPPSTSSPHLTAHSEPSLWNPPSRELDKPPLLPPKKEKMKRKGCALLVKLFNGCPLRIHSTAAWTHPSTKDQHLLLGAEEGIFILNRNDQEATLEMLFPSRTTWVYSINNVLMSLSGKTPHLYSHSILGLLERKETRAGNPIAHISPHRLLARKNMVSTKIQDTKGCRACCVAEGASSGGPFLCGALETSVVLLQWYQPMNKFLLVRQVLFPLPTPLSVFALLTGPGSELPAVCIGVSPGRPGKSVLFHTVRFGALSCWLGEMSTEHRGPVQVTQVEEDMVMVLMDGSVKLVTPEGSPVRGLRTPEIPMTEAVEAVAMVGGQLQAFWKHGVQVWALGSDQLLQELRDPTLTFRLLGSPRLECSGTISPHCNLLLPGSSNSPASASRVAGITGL
off-target receptors, ion channels, and transporters (Homo sapiens, UniProt O43293), sequence (O43293 whole entry): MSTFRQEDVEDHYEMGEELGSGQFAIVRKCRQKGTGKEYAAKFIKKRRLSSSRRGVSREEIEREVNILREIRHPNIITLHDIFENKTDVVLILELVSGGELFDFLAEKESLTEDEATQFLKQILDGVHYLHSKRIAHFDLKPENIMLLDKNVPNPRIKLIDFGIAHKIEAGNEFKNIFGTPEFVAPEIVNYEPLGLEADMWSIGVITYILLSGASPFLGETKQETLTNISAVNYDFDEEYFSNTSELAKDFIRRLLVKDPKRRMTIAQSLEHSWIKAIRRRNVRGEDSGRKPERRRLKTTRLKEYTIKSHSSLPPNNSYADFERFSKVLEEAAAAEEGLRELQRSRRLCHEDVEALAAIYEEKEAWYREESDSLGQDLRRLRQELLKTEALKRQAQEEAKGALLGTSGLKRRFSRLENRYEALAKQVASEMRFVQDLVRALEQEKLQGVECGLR

Cc1c(Cl)c2c(Cl)c(C)c1-c1c(-c3ccc(F)cc3)sc3ncnc(c13)O[C@@H](C(=O)O)Cc1cc(ccc1OCc1ccnc(-c3ccc(OC[C@H]4COCCO4)cc3)n1)OC[C@@H](CN1CCN(C)CC1)O2 [ABBV-467]
BRAF - IC50 [1]: > 10 µM | PDK1 - IC50 [2]: > 10 µM | MST1 - IC50 [3]: > 10 µM | CSF1R - IC50 [4]: > 10 µM | H1 CHO Human - EC50 ([5]; Bioprofiling 6pt Ag): > 10 µM | H1 CHO Human - IC50 ([5]; Bioprofiling 6pt Antag, Histamine): > 10 µM | cMET - IC50 [6]: > 10 µM | TAOK2 - IC50 [7]: > 10 µM | Rsk2 - IC50 [8]: > 10 µM | IC50 ([9]; read-out: LYN-B - IC50): > 10 µM | Ki ([9]; read-out: LYN-B - Ki): > 8.15 µM | A1 CHO Human - EC50 ([10]; Bioprofiling 6pt Ag): > 10 µM | A1 CHO Human - IC50 ([10]; Bioprofiling 6pt Antag, N6-Cyclopentyladenosine (CPA)): > 10 µM | PDGFRB - IC50 [11]: > 10 µM | EC50 ([12]; read-out: CHO Hamster - EC50): > 10 µM | EC50 ([12]; read-out: Cav1.2 (L-type) ND7/23 Mouse/Rat - EC50): > 10 µM | IC50 ([12]; read-out: Cav1.2 (L-type) ND7/23 Mouse/Rat - IC50, Bioprofiling 6pt Antag, KCl): > 10 µM | Opioid mu CHO Human - EC50 ([13]; Bioprofiling 6pt Ag): > 10 µM | Opioid mu CHO Human - IC50 ([13]; Bioprofiling 6pt Antag, DAMGO): > 10 µM | Erk2 - IC50 [14]: > 10 µM | MAP4K1 - IC50 [15]: > 10 µM | Zipk - IC50 [16]: > 10 µM | GRK5 - IC50 [17]: > 10 µM | DDR1 - IC50 [18]: > 10 µM | COX1 Human (Enzymatic Assay) - IC50 [19]: 8.6 µM | BTK - IC50 [20]: > 10 µM | FAK - IC50 [21]: > 10 µM | Zap70 - IC50 [22]: > 10 µM | TBK1 - IC50 [23]: > 10 µM | MAP4K2 - IC50 [24]: > 10 µM | TNK2 - IC50 [25]: > 10 µM
